This is an account of results in patent US8546405B2, “Anti-viral compounds” (Abbott Laboratories, priority 2008, dated 2013).

Molecules are shown by their SMILES.

The subject of one assay is replicon 1b-Con1. Nature of the assay: HCV subgenomic replicon luciferase reporter assay, replicon 1b-Con1. The format is cell-based, Hepatitis C virus (HCV) genotype 1b-Con1. As to conditions: Hepatitis C virus, 72 h; stable subgenomic replicon cell line, luciferase reporter, three days incubation; values given as ranges or bound.
Compound `CC(C)c1ccc2c(Nc3cc(NC(=O)c4ccc(Sc5ccc(N)cc5)c(Nc5ncnc6nc(C(C)C)ccc56)c4)ccc3Sc3ccc(N)cc3)ncnc2n1` [Example 2, 4-(4-aminophenylthio)-N-(4-(4-aminophenylthio)-3-(7-isopropylpyrido[2,3-d]pyrimidin-4-ylamino)phenyl)-3-(7-isopropylpyrido[2,3-d]pyrimidin-4-ylamino)benzamide] had an IC50 of 0.1 to 10 nM.
Compound `CC(C)c1ccc2c(Nc3cc(C#Cc4ccc(Sc5ccc(O)cc5)c(Nc5ncnc6nc(C(C)C)ccc56)c4)ccc3Sc3ccc(O)cc3)ncnc2n1` [Example 18] registered an IC50 of 0.1 to 10 nM.
Still for that read-out and setting: for `CC(C)c1ccc2c(Nc3cc(C(=O)NCCNC(=O)c4ccc(Sc5ccc(N)cc5)c(Nc5ncnc6nc(C(C)C)ccc56)c4)ccc3Sc3ccc(N)cc3)ncnc2n1` [Example 5, N,N′-(ethane-1,2-diyl)bis(4-(4-aminophenylthio)-3-(7-isopropylpyrido[2,3-d]pyrimidin-4-ylamino)benzamide)] the value was 0.1 to 10 nM.
The same measure, in the same setting: the same measure for `CC(C)c1ccc2c(Nc3cc(C#Cc4ccc(Oc5ccccc5)c(Nc5ncnc6nc(C(C)C)ccc56)c4)ccc3Oc3ccccc3)ncnc2n1` [Example 17]: 0.1 to 10 nM; for `CC(C)c1ccc2c(Nc3cc(C#Cc4ccc(Oc5ccc(CO)cc5)c(Nc5ncnc6nc(C(C)C)ccc56)c4)ccc3Oc3ccc(CO)cc3)ncnc2n1` [Example 23]: 0.1 to 10 nM; for `CC(C)c1ccc2c(Nc3cc(NC(=O)Nc4ccc(Sc5ccc(N)cc5)c(Nc5ncnc6nc(C(C)C)ccc56)c4)ccc3Sc3ccc(N)cc3)ncnc2n1` [Example 3, 1,3-bis(4-(4-aminophenylthio)-3-(7-isopropylpyrido[2,3-d]pyrimidin-4-ylamino)phenyl)urea]: 10 to 100 nM.
Consider `CC(C)c1ccc2c(Nc3cc(-c4ccc(-c5ccc(Sc6ccc(N)cc6)c(Nc6ncnc7nc(C(C)C)ccc67)c5)nc4)ccc3Sc3ccc(N)cc3)ncnc2n1` [Example 12], for which the IC50 was 0.1 to 10 nM.
As to `Cc1ccc2c(Nc3cc(C#Cc4ccc(Sc5ccc(F)cc5)c(Nc5ccnc6nc(C)ccc56)c4)ccc3Sc3ccc(F)cc3)ccnc2n1` [Example 22], the IC50 lay within 10 to 100 nM.
As to `Cc1ccc2c(Nc3cc(C#Cc4ccc(Sc5ccc(N)cc5)c(Nc5ncnc6nc(C)ccc56)c4)ccc3Sc3ccc(N)cc3)ncnc2n1` [Example 21], the IC50 was in the range of 0.1 to 10 nM.
Still for that read-out and setting: the same measure for `CC(C)c1ccc2c(Nc3cc(C#Cc4ccc(Sc5ccccc5)c(Nc5ncnc6nc(C(C)C)ccc56)c4)ccc3Sc3ccccc3)ncnc2n1` [Example 15]: 0.1 to 10 nM; for `CC(C)c1ccc2c(Nc3cc(CN(Cc4ccc(Sc5ccc(N)cc5)c(Nc5ncnc6nc(C(C)C)ccc56)c4)c4ccccc4)ccc3Sc3ccc(N)cc3)ncnc2n1` [Example 9]: less than 0.1 nM.
Same read-out and setting: the same measure for `CC(C)c1ccc2c(Nc3cc(C#Cc4ccc(Sc5ccc(F)cc5)c(Nc5ncnc6nc(C(C)C)ccc56)c4)ccc3Sc3ccc(F)cc3)ncnc2n1` [Example 14]: 0.1 to 10 nM; for `CC(C)c1ccc2c(Nc3cc(C(=O)NNC(=O)c4ccc(Sc5ccc(N)cc5)c(Nc5ncnc6nc(C(C)C)ccc56)c4)ccc3Sc3ccc(N)cc3)ncnc2n1` [Example 1, 4-(4-aminophenylthio)-N′-(4-(4-aminophenylthio)-3-(7-isopropylpyrido[2,3-d]pyrimidin-4-ylamino)benzoyl)-3-(7-isopropylpyrido[2,3-d]pyrimidin-4-ylamino)benzohydrazide]: 0.1 to 10 nM; for `CC(C)c1ccc2c(Nc3cc(C#Cc4ccc(Sc5ccc(N)cc5)c(Nc5ncnc6nc(C(C)C)ccc56)c4)ccc3Sc3ccc(N)cc3)ncnc2n1` [Example 8, N,N′-(5,5′-(ethyne-1,2-diyl)bis(2-(4-aminophenylthio)-5,1-phenylene))bis(7-isopropylpyrido[2,3-d]pyrimidin-4-amine)]: less than 0.1 nM.
Still for that read-out and setting: for `COc1ccc(CN(Cc2ccc(Sc3ccc(N)cc3)c(Nc3ncnc4nc(C(C)C)ccc34)c2)Cc2ccc(Sc3ccc(N)cc3)c(Nc3ncnc4nc(C(C)C)ccc34)c2)c(OC)c1` [Example 11] the value was 0.1 to 10 nM.
Take `CC(C)c1ccc2c(Nc3cc(C#Cc4ccc(Sc5cccc(N)c5)c(Nc5ncnc6nc(C(C)C)ccc56)c4)ccc3Sc3cccc(N)c3)ncnc2n1` [Example 19]: the IC50 is 0.1 to 10 nM.
Same read-out and setting: the same measure for `CC(C)c1ccc2c(Nc3cc(C#Cc4ccc(Oc5ccc(N)cc5)c(Nc5ncnc6nc(C(C)C)ccc56)c4)ccc3Oc3ccc(N)cc3)ncnc2n1` [Example 20]: 0.1 to 10 nM; for `CC(C)c1ccc2c(Nc3cc(C#Cc4ccc(Sc5ccc(N(C)C)cc5)c(Nc5ncnc6nc(C(C)C)ccc56)c4)ccc3Sc3ccc(N(C)C)cc3)ncnc2n1` [Example 16]: 0.1 to 10 nM.
Consider `CC(C)c1ccc2c(Nc3cc(-c4ccc(-c5ccc(Sc6ccc(N)cc6)c(Nc6ncnc7nc(C(C)C)ccc67)c5)cc4)ccc3Sc3ccc(N)cc3)ncnc2n1` [Example 4, 4,4″-(4-amino-phenylsulfanyl)-N*3*,N*3″*-(7-isopropylpyrido[2,3-d]pyrimidin-4-yl)-[1,1′;4′,1″]terphenyl-3,3″-diamine], for which the IC50 lay within 0.1 to 10 nM.
Same read-out and setting: the same measure for `CC(C)c1ccc2c(Nc3cc(C#Cc4ccc(Sc5ccc(OCc6ccccc6)cc5)c(Nc5ncnc6nc(C(C)C)ccc56)c4)ccc3Sc3ccc(OCc4ccccc4)cc3)ncnc2n1` [Example 26]: 0.1 to 10 nM; for `CC(C)c1ccc2c(Nc3cc(C(=O)N4CCN(C(=O)c5ccc(Sc6ccc(N)cc6)c(Nc6ncnc7nc(C(C)C)ccc67)c5)CC4)ccc3Sc3ccc(N)cc3)ncnc2n1` [Example 6, piperazine-1,4-diylbis((4-(4-aminophenylthio)-3-(7-isopropylpyrido[2,3-d]pyrimidin-4-ylamino)phenyl)methanone)]: 0.1 to 10 nM; for `COc1ccc(Sc2ccc(CN(Cc3ccc(Sc4ccc(OC)cc4)c(Nc4ccnc5nc(C)ccc45)c3)C(C)C)cc2Nc2ccnc3nc(C)ccc23)cc1` [Example 28]: 10 to 100 nM.
Still for that read-out and setting: the same measure for `CC(C)c1ccc2c(Nc3cc(CN(Cc4ccc(Sc5ccc(N)cc5)c(Nc5ncnc6nc(C(C)C)ccc56)c4)C(C)C)ccc3Sc3ccc(N)cc3)ncnc2n1` [Example 24]: 0.1 to 10 nM.
Same read-out and setting: for `CC(C)c1ccc2c(Nc3cc(C#Cc4ccc(Oc5ccc(O)cc5)c(Nc5ncnc6nc(C(C)C)ccc56)c4)ccc3Oc3ccc(O)cc3)ncnc2n1` [Example 25] the value was 0.1 to 10 nM; for `Cc1ccc2c(Nc3cc(-c4ccc(-c5ccc(Sc6ccc(N)cc6)c(Nc6ncnc7nc(C)ccc67)c5)cc4)ccc3Sc3ccc(N)cc3)ncnc2n1` [Example 13], 0.1 to 10 nM.

The same assay, now with this note: Hepatitis C virus; same test; cell prints lower limit in nM and upper limit in μM.
`CC(C)c1ccc2c(Nc3cccc(C(=O)Nc4ccc(Sc5ccc(N)cc5)c(Nc5ncnc6nc(C(C)C)ccc56)c4)c3)ncnc2n1` [Example 7, N-(4-(4-aminophenylthio)-3-(7-isopropylpyrido[2,3-d]pyrimidin-4-ylamino)phenyl)-3-(7-isopropylpyrido[2,3-d]pyrimidin-4-ylamino)benzamide]: the IC50 fell in the range of 100 to 10000 nM.
Still for that read-out and setting: the same measure for `CC(C)c1ccc2c(Nc3cc(C(=O)NCCNC(=O)c4ccc(Sc5ccccc5)c(Nc5ncnc6nc(C(C)C)ccc56)c4)ccc3Sc3ccccc3)ncnc2n1` [Example 10]: 100 to 10000 nM.

Broadly, the IC50 is the concentration that gives 50% inhibition. Higher therefore signals weaker potency.
